From US20230364118A1, “RIBITOL TREATMENT” (priority 2020, published 2023)
Where two headings read alike, the source gives them in different places.

Columns and labels:
[1] = 28-day repeat-dose oral toxicokinetics; assay type: in vivo, Bama minipig; conditions: male, Bama, minipig, plasma, po; for Cmax: read-out: Cmax; for Tmax: median (range); for AUC(0-t): read-out: AUC0-24
Protocol: Toxicokinetics of ribitol was evaluated as part of the 28-day toxicology study in male and female Bama minipig. […] Animals in control group were dosed for 28 days twice daily with the vehicle only (Purified Water). On Days 1 and 28, blood samples were collected at 0 (pre first dose), 0.5, 1, 2, 4, 6 (pre-second dose), 6.5, 7, 8, 10, 12, and 24 hours from all available animals.

Single oral dose PK = assay type: in vivo; conditions: Bama, minipig, plasma
Protocol: The PK of ribitol was studied in 3 male and 3 female Bama minipigs following escalating PO dose levels using the same animals with a 48 hour washout period at 0.3 g/kg (Day 1) (FIG. 11A), 1.0 g/kg (Day 3) (FIG. 11B) and 0.3 g/kg TID (Day 16) (FIG. 11C). On Days 1 and 3, blood samples were collected at 0, 0.5, 1, 2, 4, 8, 12, and 24 hours post dose from all animals. On Day 16, blood samples were collected from all animals at 0, 0.5, 1, 2, 4, 6 (pre-second dose), 6.5, 7, 8, 10, 12 (pre-third dose), 12.5, 13, 14, 16, and 24 hours post dose.

[2] = Plasma protein binding, rapid equilibrium dialysis; assay type: in vitro ADME
Protocol: Protein binding studies with ribitol were performed in vitro using plasma from CD-1 mouse, Sprague-Dawley rat, Gottingen minipig, and human at 75 μg/mL (0.49 mM) and 200 μg/mL (1.31 mM) using the rapid equilibrium dialysis method. The percent of ribitol bound to plasma was approximately similar between the two concentrations tested in all species.

[3] = Chronic (6 months) administration in mice; assay type: in vivo, mouse
Protocol: This response subsided at 48 hours after termination of treatment. No other adverse findings have been identified thus far with ribitol.

matriglycan expression = assay: Matriglycan expression in wild type mice; assay type: in vivo, mouse; conditions: one month, 5% ribitol in drinking water; vs vehicle
Protocol: Wild type mice were dosed with ribitol to assess matriglycan expression in normal mice. The mice were treated for one month with 5% ribitol in drinking water ad libitum. Muscle samples were evaluated for matriglycan expression at the end of dosing via Western Blot analysis (FIG. 9).

[4] = 1 g/kg, 1.0 g/kg/dose BID (2.0 g/kg/day, NOAEL), Day 28, Male
[5] = 1 g/kg, 1.0 g/kg/dose BID, Day 1, Male, mean ± SD
[6] = 2 g/kg/day, 1.0 g/kg/dose BID (2.0 g/kg/day, NOAEL), Day 28, Male

SMILES: OC[C@@H](O)[C@@H](O)[C@@H](O)CO [ribitol, (2R,3s,4S)-Pentane-1,2,3,4,5-pentol]
- Cmax ([1]; 0.3 g/kg, 0.3 g/kg/dose BID, Day 28, Male, mean ± SD): 123 ± 78.2 µg/mL
- Tmax ([1]; 0.3 g/kg, 0.3 g/kg/dose BID, Day 28, Male): 48 min
- AUC(0-t) [1, 4]: 2560 µg·h/mL
- Cmax [1, 4]: 475 µg/mL
- AUC(0-t) [1, 5]: 1930 ± 373 µg·h/mL
- Cmax [1, 5]: 365 ± 93.6 µg/mL
- Tmax ([1]; 1 g/kg, 1.0 g/kg/dose BID, Day 1, Male): 228 min
- Tmax ([1]; 1 g/kg, 1.0 g/kg/dose BID, Day 28, Male): 48 min
- AUC(0-t) [1, 6]: 2560 µg·h/mL
- Cmax [1, 6]: 475 µg/mL
- AUC(0-inf) (Single oral dose PK; single PO 0.3 g/kg, female): 245 µg·h/mL
- Cmax (Single oral dose PK; single PO 0.3 g/kg, female): 128 µg/mL
- half-life (Single oral dose PK; single PO 0.3 g/kg, female): 73.8 min
- bioavailability (Single oral dose PK; single PO 0.3 g/kg, female, read-out: % F): 65.3%
- Tmax (Single oral dose PK; single PO 0.3 g/kg, female, read-out: Tmax): 40.2 min
- AUC(0-inf) (Single oral dose PK; single PO 0.3 g/kg, male): 210 µg·h/mL
- Cmax (Single oral dose PK; single PO 0.3 g/kg, male): 112 µg/mL
- half-life (Single oral dose PK; single PO 0.3 g/kg, male): 96 min
- bioavailability (Single oral dose PK; single PO 0.3 g/kg, male, read-out: % F): 55.9%
- Tmax (Single oral dose PK; single PO 0.3 g/kg, male, read-out: Tmax): 30 min
- AUC(0-inf) (Single oral dose PK; single PO 1.0 g/kg, female): 878 µg·h/mL
- Cmax (Single oral dose PK; single PO 1.0 g/kg, female): 368 µg/mL
- half-life (Single oral dose PK; single PO 1.0 g/kg, female): 85.8 min
- bioavailability (Single oral dose PK; single PO 1.0 g/kg, female, read-out: % F): 70.2%
- Tmax (Single oral dose PK; single PO 1.0 g/kg, female, read-out: Tmax): 40.2 min
- AUC(0-inf) (Single oral dose PK; single PO 1.0 g/kg, male): 869 µg·h/mL
- Cmax (Single oral dose PK; single PO 1.0 g/kg, male): 404 µg/mL
- half-life (Single oral dose PK; single PO 1.0 g/kg, male): 88.2 min
- bioavailability (Single oral dose PK; single PO 1.0 g/kg, male, read-out: % F): 69.4%
- Tmax (Single oral dose PK; single PO 1.0 g/kg, male, read-out: Tmax): 30 min
- Tmax (Single oral dose PK; both sexes, po, read-out: Tmax after oral administration): < 120 min
- bioavailability (Single oral dose PK; both sexes, po, range over doses and sexes, read-out: oral bioavailability): 55.9 to 70.2%
- % Binding ([2]; 75 μg/mL (0.49 mM), CD-1 mouse plasma): 44.6 ± 1.3%
- % Binding ([2]; 75 μg/mL (0.49 mM), Gottingen minipig plasma): 44.1 ± 1.0%
- % Binding ([2]; 75 μg/mL (0.49 mM), Sprague-Dawley rat plasma): 43.3 ± 3.4%
- % Binding ([2]; 75 μg/mL (0.49 mM), human plasma): 36.5 ± 1.8%
- % Binding ([2]; 200 μg/mL (1.31 mM), CD-1 mouse plasma): 42.5 ± 0.3%
- % Binding ([2]; 200 μg/mL (1.31 mM), Gottingen minipig plasma): 38.6 ± 2.4%
- % Binding ([2]; 200 μg/mL (1.31 mM), Sprague-Dawley rat plasma): 40.3 ± 0.5%
- % Binding ([2]; 200 μg/mL (1.31 mM), human plasma): 34.6 ± 0.3%
- fraction unbound ([2]; human plasma, 0.49 and 1.31 mM, range): 0.635 to 0.654
- adverse findings ([3]; 6 months, ≥2 g/kg/day): intestinal bloating and soft stool were observed
- time for response to subside after termination of treatment ([3]; intestinal bloating and soft stool): 48 h
- matriglycan expression (Western Blot) (matriglycan expression): No increase in matriglycan expression
